Here are results for two compounds from patent US6203813A, “Pharmaceutical delivery device and method of preparation therefor” (priority 1998, dated 2001).

Entries after “also recorded” stand apart in the source; their conditions may differ. Where only a bound is given, the exact number is not on record here.

One series deals with patients. Particulars: cited from earlier work.
Series [1] deals with rats. Particulars: 50 mg pellets containing 10 mg naloxone or naltrexone as base; cited from earlier work.
The nature of series [2]: Patients' blood levels of naltrexone and 6-beta-naltrexone after subcutaneous pellet implant. Format: in vivo, human.
In another series the test system is opiate addicts. The experiment in a line: Relapse studies after opiate reversal under general anesthesia (telephone follow-up). Format: in vivo, human.
For series [3] the following is noted: cited from earlier work.
Series [4] deals with rats. Particulars: chronic naltrexone exposure; cited from earlier work.
For a further series, the system named is male rats. Particulars: pentobarbital injection; naltrexone by injection vs pellet; cited from earlier work.

For the compound `O=C1CC[C@@]2(O)[C@H]3Cc4ccc(O)c5c4[C@@]2(CCN3CC2CC2)[C@H]1O5` [naltrexone, N-cyclopropylmethylnoroxy morphone], in the series with patients (human, in vivo), the addiction liability entry is “neither addicting nor habit-forming”; the “euphoric effects / effects on stopping the drug” value is “provides no euphoric effects and there are no observable pharmacological consequences when a patient stops taking the drug”. Besides, in the series with patients (use in humans), the side-effects result is listed as “free of severe side-effects”. Besides, the “analgesia on repeated painful stimulation” value in the series with rats [1] is listed as “repeated painful stimulation results in analgesia in rats treated with an opiate antagonist”. Also, the “duration of therapeutically effective naltrexone level in bloodstream” value in series [2] (1000 mg dose, inventive implant, ~2-8 ng/ml) was “approximately eighty”. For the same compound, the Ntx level in series [2] (78 days since implant, patients' blood, pellet of Examples 1-4, listed as Ntx, 112320 min) is 6 ng/mL. In addition, the concentration at 1920 h in series [2] (human, blood, sc, 1000 mg, inventive implant, leveling off, for approximately eighty days, read-out: level of naltrexone in patient's bloodstream) lay in the range of 2 to 8 ng/mL. Besides, in series [2] (human, blood, sc, 8 days since implant, patients' blood, pellet of Examples 1-4, read-out: Ntx level), the concentration at 192 h is 7 ng/mL. Also, the concentration at 336 h in series [2] (human, blood, sc, 14 days since implant, patients' blood, pellet of Examples 1-4, read-out: Ntx level) was determined as 11 ng/mL. Further, the concentration at 528 h in series [2] (human, blood, sc, 22 days since implant, patients' blood, pellet of Examples 1-4, read-out: Ntx level) amounted to 7 ng/mL. For the same compound, the concentration at 672 h in series [2] (human, blood, sc, 28 days since implant, patients' blood, pellet of Examples 1-4, read-out: Ntx level) turned out to be 2 ng/mL. Moreover, the concentration at 696 h in series [2] (human, blood, sc, 29 days since implant, patients' blood, pellet of Examples 1-4, read-out: Ntx level) came to 2 ng/mL. The concentration at 768 h in series [2] (human, blood, sc, 32 days since implant, patients' blood, pellet of Examples 1-4, read-out: Ntx level) was 7 ng/mL. Moreover, in series [2] (human, blood, sc, 33 days since implant, patients' blood, pellet of Examples 1-4, read-out: Ntx level), the concentration at 792 h is under 2 ng/mL. Moreover, the concentration at 816 h in series [2] (human, blood, sc, 34 days since implant, patients' blood, pellet of Examples 1-4, read-out: Ntx level) was determined as 4 ng/mL. Moreover, in series [2] (human, blood, sc, 35 days since implant, patients' blood, pellet of Examples 1-4, read-out: Ntx level), the concentration at 840 h came to 4 ng/mL. Further, in series [2] (human, blood, sc, 37 days since implant, patients' blood, pellet of Examples 1-4, read-out: Ntx level), the concentration at 888 h is under 3 ng/mL. The concentration at 912 h in series [2] (human, blood, sc, 38 days since implant, patients' blood, pellet of Examples 1-4, read-out: Ntx level) is under 2 ng/mL. The concentration at 936 h in series [2] (human, blood, sc, 39 days since implant, patients' blood, pellet of Examples 1-4, read-out: Ntx level) turned out to be 5 ng/mL. In series [2] (human, blood, sc, 42 days since implant, patients' blood, pellet of Examples 1-4, read-out: Ntx level), the concentration at 1008 h was 4 ng/mL. The concentration at 1176 h in series [2] (human, blood, sc, 49 days since implant, patients' blood, pellet of Examples 1-4, read-out: Ntx level) came to 4 ng/mL. Further, in series [2] (human, blood, sc, 51 days since implant, patients' blood, pellet of Examples 1-4, read-out: Ntx level), the concentration at 1224 h stood at 8 ng/mL. In addition, the concentration at 1320 h in series [2] (human, blood, sc, 55 days since implant, patients' blood, pellet of Examples 1-4, read-out: Ntx level) came to 36 ng/mL. The concentration at 1440 h in series [2] (human, blood, sc, 60 days since implant, patients' blood, pellet of Examples 1-4, read-out: Ntx level) amounted to 10 ng/mL. Also, the concentration at 1488 h in series [2] (human, blood, sc, 62 days since implant, patients' blood, pellet of Examples 1-4, read-out: Ntx level) is under 4 ng/mL. The concentration at 1560 h in series [2] (human, blood, sc, 65 days since implant, patients' blood, pellet of Examples 1-4, read-out: Ntx level) is under 2 ng/mL. Besides, in series [2] (human, blood, sc, 70 days since implant, patients' blood, pellet of Examples 1-4, read-out: Ntx level), the concentration at 1680 h amounted to 3 ng/mL. For the same compound, the concentration at 1848 h in series [2] (human, blood, sc, 77 days since implant, patients' blood, pellet of Examples 1-4, read-out: Ntx level) stood at 2 ng/mL. Moreover, the concentration at 1872 h in series [2] (human, blood, sc, 78 days since implant, patients' blood, pellet of Examples 1-4, read-out: Ntx level) stood at 4 ng/mL. Further, the “patients using opiates, assuming all not contacted were using” value in the series on opiate addicts (one month after opiate reversal, DNM versus ONM, x2=0.76 (not significant)) worked out at 54%. Further, the “patients using opiates, excluding those who could not be contacted” value with opiate addicts (one month follow-up after ORGA, DNM 1000 mg per month pellet versus ONM 50 mg per day oral, x2=14.06 (very significant)) is 44%. Besides, the “level in bloodstream after leveling off, oral” value in series [3] (1000 mg naltrexone orally, after 48 hours / two days) is 0 ng/mL. The “duration of the 100 ng/ml level, oral” value in series [3] (1000 mg naltrexone orally) was 48 h. Further, in series [3] (1000 mg naltrexone orally, for 48 hours), the “level in patient's bloodstream, oral” value was 100 ng/mL. The “undesirable side effects of conventional oral delivery” value in series [3] (at approximately 100 ng/l in the blood stream) was “undesirable side effects such as an unpleasant feeling”. Besides, the “behavioral sensitivity / morphine-induced hyperactivity after chronic naltrexone” value in the series on rats [4] was “produces behavioral supersensitivity to morphine-induced reinforcement and hyperactivity; also recorded: potentiated morphine-induced hyperactivity in rats”. For the same compound, the pentobarbital sleeping time result in the series with male rats is on record as “increasingly antagonized after naltrexone administration by injection”.

For the compound `C=CCN1CC[C@]23c4c5ccc(O)c4O[C@H]2C(=O)CC[C@@]3(O)[C@H]1C5` [naloxone, N-allylnoroxymorphone], the “analgesia on repeated painful stimulation” value in the series on rats [1] is on record as “repeated painful stimulation results in analgesia in rats treated with an opiate antagonist”.
